Here are results for 19 compounds from patent publication US11993599B2, “Therapeutic compounds” (Genentech, Inc., priority 2021, dated 2024).

The target of assay [1] is T1, BRG1 (Homo sapiens, UniProt P51532).
T1 construct: either BRM primary antibody (Cell signaling Cat #11966) or BRG primary antibody (Abcam, ab 110641); endogenous in cells; host or cells: SW1573
Briefly: Immunofluorescence assay for BRG1 degradation in SW1573 cells. The assay is classed as cell-based. To be noted: 20 hours incubation; for DC50: immunofluorescence mean nuclear signal, read-out: BRG1 IF Degradation IC50; for Dmax: SW1573, 20 h, normalized to a known degrader control, read-out: BRG1 IF Degradation Sinf (%). As for the experimental part:
(§1) Example B-2: Immunofluorescence Assay for BRM and BRG1 Degraders
(§2) SW1573 cells were seeded at 3000 cells/well in 384 well plates. The next day, compounds were added using an Echo dispenser. After 20 hours of incubation with compound, cells were fixed with 4% formaldehyde then permeabilized with 0.2% Triton X-100 and blocked with 10% FCS. Fixed and permeabilized cells were treated overnight at 4° C. with either BRM primary antibody (Cell signaling Cat #11966) or BRG primary antibody (Abcam, ab 110641). Finally, cells were treated with fluorescently labeled secondary antibodies for 1 hr (Donkey anti-Rabbit IgG AF488, Life Technologies, A21206) and Hoechst nuclear stain (#H3569) was added for 30 minutes. Cells were washed with PBS in between each step and before imaging on an Opera Phenix microscope (Perkin Elmer). Harmony software (Perking Elmer) was used to quantify the mean nuclear signaling intensity of BRM or BRG signaling per cell in each well. Dose responses were determined from the concentration dependent response of mean nuclear signal intensity with data normalized to a known degrader control. Dose response curves were fit to a floating maximum to allow for calculation of the Dmax.
(§3) Note that, in Table 5, the “Compound Number” corresponds to that used in Table 1. In Table 5, for BRM and BRG1 IF degradation IC50 (μM): A indicates <0.010 μM, B indicates 0.010-0.10 μM, and C indicates >0.10 μM; and for BRM and BRG1 IF degradation Sinf % D indicates 0-−30%, E indicates −30%-−70%, F indicates −71%-−120% and ND indicates the value was not determined.

Assay [2] deals with BRM (Homo sapiens, UniProt P51531). Briefly: Immunofluorescence assay for BRM degradation in SW1573 cells. The assay is classed as cell-based. The arrangement: treated overnight at 4° C. with either BRM primary antibody (Cell signaling Cat #11966) or BRG primary antibody; endogenous in cells; host or cells: SW1573. To be noted: 20 hours incubation; for DC50: immunofluorescence mean nuclear signal, read-out: BRM IF Degradation IC50; for BRM IF Degradation Sinf (%): normalized to a known degrader control. The procedure:
as §1, §2, §3

T1 sequence (P51532 whole entry): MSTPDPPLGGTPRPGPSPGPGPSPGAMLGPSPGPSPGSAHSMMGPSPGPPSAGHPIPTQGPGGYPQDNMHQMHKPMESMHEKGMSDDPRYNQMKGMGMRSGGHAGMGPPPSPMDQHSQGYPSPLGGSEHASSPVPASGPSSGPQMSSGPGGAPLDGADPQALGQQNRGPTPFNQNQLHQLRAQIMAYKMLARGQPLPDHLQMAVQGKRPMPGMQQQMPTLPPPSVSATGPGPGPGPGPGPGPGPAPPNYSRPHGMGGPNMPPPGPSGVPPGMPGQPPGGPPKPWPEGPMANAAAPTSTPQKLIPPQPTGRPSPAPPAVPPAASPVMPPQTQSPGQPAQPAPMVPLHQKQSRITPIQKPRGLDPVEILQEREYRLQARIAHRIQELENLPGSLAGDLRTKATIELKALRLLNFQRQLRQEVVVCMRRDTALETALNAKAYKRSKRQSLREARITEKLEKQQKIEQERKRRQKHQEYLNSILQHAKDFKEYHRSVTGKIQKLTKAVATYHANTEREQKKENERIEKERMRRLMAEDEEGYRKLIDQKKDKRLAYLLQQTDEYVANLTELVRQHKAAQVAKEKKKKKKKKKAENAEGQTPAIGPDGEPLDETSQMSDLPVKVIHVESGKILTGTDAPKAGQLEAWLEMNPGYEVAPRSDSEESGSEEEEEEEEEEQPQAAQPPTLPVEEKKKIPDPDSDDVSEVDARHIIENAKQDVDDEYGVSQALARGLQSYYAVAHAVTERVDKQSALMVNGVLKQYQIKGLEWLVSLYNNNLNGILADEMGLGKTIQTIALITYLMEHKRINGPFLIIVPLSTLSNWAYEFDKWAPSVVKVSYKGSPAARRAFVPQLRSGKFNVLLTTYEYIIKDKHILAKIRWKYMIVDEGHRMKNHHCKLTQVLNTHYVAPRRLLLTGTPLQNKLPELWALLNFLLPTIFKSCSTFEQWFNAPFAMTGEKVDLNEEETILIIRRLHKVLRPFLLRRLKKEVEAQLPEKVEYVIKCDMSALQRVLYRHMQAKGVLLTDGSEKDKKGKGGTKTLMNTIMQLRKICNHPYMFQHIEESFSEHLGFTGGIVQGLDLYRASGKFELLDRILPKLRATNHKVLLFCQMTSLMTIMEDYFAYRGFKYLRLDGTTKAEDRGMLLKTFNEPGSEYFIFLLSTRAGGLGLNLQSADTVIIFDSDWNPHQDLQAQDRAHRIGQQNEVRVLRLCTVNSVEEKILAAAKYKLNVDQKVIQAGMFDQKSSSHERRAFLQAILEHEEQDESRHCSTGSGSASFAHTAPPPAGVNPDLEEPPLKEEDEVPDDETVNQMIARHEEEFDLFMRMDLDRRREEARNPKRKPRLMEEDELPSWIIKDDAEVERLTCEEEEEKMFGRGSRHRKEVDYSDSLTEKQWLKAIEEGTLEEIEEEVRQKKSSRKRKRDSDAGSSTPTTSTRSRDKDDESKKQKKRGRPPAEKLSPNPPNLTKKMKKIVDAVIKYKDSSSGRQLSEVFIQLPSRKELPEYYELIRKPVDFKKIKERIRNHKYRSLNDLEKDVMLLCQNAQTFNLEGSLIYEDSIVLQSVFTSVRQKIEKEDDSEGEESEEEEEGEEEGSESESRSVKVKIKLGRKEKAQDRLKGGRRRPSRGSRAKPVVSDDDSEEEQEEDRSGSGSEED
BRM, sequence (P51531 whole entry): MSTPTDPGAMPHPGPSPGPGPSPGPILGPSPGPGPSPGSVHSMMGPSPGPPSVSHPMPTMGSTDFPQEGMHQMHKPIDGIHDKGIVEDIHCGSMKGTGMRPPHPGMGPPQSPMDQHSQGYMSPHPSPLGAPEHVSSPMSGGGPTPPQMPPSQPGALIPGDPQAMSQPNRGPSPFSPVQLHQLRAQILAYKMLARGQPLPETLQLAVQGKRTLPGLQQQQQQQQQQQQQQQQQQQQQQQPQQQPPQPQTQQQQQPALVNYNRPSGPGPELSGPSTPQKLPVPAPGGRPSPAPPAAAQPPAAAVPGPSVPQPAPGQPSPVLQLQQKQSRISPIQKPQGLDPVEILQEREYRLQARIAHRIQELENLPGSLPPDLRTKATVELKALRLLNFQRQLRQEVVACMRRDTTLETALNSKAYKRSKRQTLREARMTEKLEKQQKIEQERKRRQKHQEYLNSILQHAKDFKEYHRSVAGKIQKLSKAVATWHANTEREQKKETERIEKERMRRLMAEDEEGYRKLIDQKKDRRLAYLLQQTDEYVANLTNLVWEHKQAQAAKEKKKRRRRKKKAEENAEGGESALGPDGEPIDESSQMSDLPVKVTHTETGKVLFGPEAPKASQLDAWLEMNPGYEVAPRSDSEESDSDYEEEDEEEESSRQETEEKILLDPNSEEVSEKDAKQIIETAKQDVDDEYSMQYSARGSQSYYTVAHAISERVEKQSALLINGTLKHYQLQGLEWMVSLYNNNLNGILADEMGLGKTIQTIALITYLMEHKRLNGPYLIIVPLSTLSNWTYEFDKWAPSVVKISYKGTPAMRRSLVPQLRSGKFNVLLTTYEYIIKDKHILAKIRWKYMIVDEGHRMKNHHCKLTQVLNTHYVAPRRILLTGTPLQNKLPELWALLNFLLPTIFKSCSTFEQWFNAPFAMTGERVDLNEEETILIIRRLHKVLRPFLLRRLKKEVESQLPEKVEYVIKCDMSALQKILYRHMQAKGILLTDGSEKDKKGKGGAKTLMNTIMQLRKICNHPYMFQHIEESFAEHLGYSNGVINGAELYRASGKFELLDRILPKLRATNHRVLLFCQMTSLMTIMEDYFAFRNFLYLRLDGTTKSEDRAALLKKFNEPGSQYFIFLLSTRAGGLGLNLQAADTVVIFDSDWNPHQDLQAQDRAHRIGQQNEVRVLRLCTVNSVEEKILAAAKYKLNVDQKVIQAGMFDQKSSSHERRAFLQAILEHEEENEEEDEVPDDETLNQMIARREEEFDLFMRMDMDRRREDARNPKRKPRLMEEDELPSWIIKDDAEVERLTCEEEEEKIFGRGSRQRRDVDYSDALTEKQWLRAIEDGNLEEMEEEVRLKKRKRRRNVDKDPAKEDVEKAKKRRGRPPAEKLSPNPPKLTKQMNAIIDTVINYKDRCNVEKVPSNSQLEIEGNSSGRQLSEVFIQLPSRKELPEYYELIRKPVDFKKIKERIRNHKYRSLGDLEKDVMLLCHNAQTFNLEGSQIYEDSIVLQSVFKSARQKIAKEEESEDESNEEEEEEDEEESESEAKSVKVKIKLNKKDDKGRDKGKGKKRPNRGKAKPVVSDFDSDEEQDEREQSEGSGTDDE

Turning to `Oc1ccccc1-c1cc2c(nn1)NC[C@H]1CN(c3ccnc(C#CCN4CCCCCC4)c3)CCN21` (single isomer, unassigned) [Compound 252], in assay [1], the DC50 was less than 10 nM and the Dmax is 71 to 120%. Moreover, in assay [2], the DC50 is less than 10 nM and the “BRM IF Degradation Sinf (%)” value is “F (F indicates −71%-−120%)”.

`Oc1ccccc1-c1cc2c(nn1)NC[C@@H]1CN(c3ccnc(C#CCN4CCCCCC4)c3)CCN21` (single isomer, unassigned) [Compound 253]: in assay [1], the DC50 is less than 10 nM and the Dmax fell in the range of 71 to 120%. Moreover, in assay [2], the DC50 was less than 10 nM and the “BRM IF Degradation Sinf (%)” value was “F (F indicates −71%-−120%)”.

On to `Nc1nnc(-c2ccccc2O)cc1N1CC2CCC(C1)N2c1ccnc(C#CCNC(=O)C2CCNCC2)c1` [Compound 35, N-[3-[4-[3-[3-amino-6-(2-hydroxyphenyl)pyridazin-4-yl]-3,8-diazabicyclo[3.2.1]octan-8-yl]-2-pyridyl]prop-2-ynyl]piperidine-4-carboxamide], for which the DC50 in assay [1] is greater than 100 nM. Moreover, in assay [2], the DC50 is greater than 100 nM and the “BRM IF Degradation Sinf (%)” value is given as “E (E indicates −30%-−70%)”.

Turning to `CC(C)(N)C#Cc1cc(N2C3CCC2CN(c2cc(-c4ccccc4O)nnc2N)C3)ccn1` [Compound 36, 2-[6-amino-5-[8-[2-(3-amino-3-methyl-but-1-ynyl)-4-pyridyl]-3,8-diazabicyclo[3.2.1]octan-3-yl]pyridazin-3-yl]phenol], in assay [1], the DC50 fell in the range of 10 to 100 nM and the Dmax is 30 to 70%. In assay [2], the DC50 was 10 to 100 nM and the “BRM IF Degradation Sinf (%)” value is given as “E (E indicates −30%-−70%)”.

With `COC1CCCN(CC#Cc2cc(N3C4CCC3CN(c3cc(-c5ccccc5O)nnc3N)C4)ccn2)C1` (stereo not shown) [Compound 37, 2-[6-amino-5-[8-[2-[3-(3-methoxy-1-piperidyl)prop-1-ynyl]-4-pyridyl]-3,8-diazabicyclo[3.2.1]octan-3-yl]pyridazin-3-yl]phenol], in assay [1], the DC50 was less than 10 nM and the Dmax is 30 to 70%. In assay [2], the DC50 lay in the range of 10 to 100 nM and the “BRM IF Degradation Sinf (%)” value is listed as “E (E indicates −30%-−70%)”.

On to `Nc1nnc(-c2ccccc2O)cc1N1CC2CCC(C1)N2c1ccnc(C#CCN2CCN(C3CC3)CC2)c1` [Compound 38, 2-[6-amino-5-[8-[2-[3-(4-cyclopropylpiperazin-1-yl)prop-1-ynyl]-4-pyridyl]-3,8-diazabicyclo[3.2.1]octan-3-yl]pyridazin-3-yl]phenol], for which the results for the DC50 in assay [1] and in assay [2] were greater than 100 nM and 10 to 100 nM, respectively. Besides, the “BRM IF Degradation Sinf (%)” value in assay [2] is on record as “E (E indicates −30%-−70%)”.

As to `Nc1nnc(-c2ccccc2O)cc1N1CC2CCC(C1)N2c1ccnc(C#CCN2CC3CCCCC3C2)c1` (stereo not shown) [Compound 39, 2-[5-[8-[2-[3-(1,3,3a,4,5,6,7,7a-octahydroisoindol-2-yl)prop-1-ynyl]-4-pyridyl]-3,8-diazabicyclo[3.2.1]octan-3-yl]-6-amino-pyridazin-3-yl]phenol], in assay [1], the DC50 is less than 10 nM and the Dmax fell in the range of 30 to 70%. In addition, in assay [2], the DC50 is less than 10 nM and the “BRM IF Degradation Sinf (%)” value is on record as “F (F indicates −71%-−120%)”.

In the case of `CC1CN(CC#Cc2cc(N3C4CCC3CN(c3cc(-c5ccccc5O)nnc3N)C4)ccn2)CCN1` (stereo not shown) [Compound 40, 2-[6-amino-5-[8-[2-[3-(3-methylpiperazin-1-yl)prop-1-ynyl]-4-pyridyl]-3,8-diazabicyclo[3.2.1]octan-3-yl]pyridazin-3-yl]phenol], the DC50 in assay [1] was greater than 100 nM. In assay [2], the DC50 is greater than 100 nM and the “BRM IF Degradation Sinf (%)” value was “E (E indicates −30%-−70%)”.

`COCC1CCCCN1CC#Cc1cc(N2C3CCC2CN(c2cc(-c4ccccc4O)nnc2N)C3)ccn1` (stereo not shown) [Compound 41, 2-[6-amino-5-[8-[2-[3-[2-(methoxymethyl)-1-piperidyl]prop-1-ynyl]-4-pyridyl]-3,8-diazabicyclo[3.2.1]octan-3-yl]pyridazin-3-yl]phenol]: in assay [1], the DC50 was 10 to 100 nM and the Dmax was 30 to 70%. In assay [2], the DC50 is 10 to 100 nM and the “BRM IF Degradation Sinf (%)” value is on record as “E (E indicates −30%-−70%)”.

`CC1CN(CC#Cc2cc(N3C4CCC3CN(c3cc(-c5ccccc5O)nnc3N)C4)ccn2)CCCO1` (stereo not shown) [Compound 42, 2-[6-amino-5-[8-[2-[3-(2-methyl-1,4-oxazepan-4-yl)prop-1-ynyl]-4-pyridyl]-3,8-diazabicyclo[3.2.1]octan-3-yl]pyridazin-3-yl]phenol]: in assay [1], the DC50 was in the range of 10 to 100 nM and the Dmax is 30 to 70%. Further, in assay [2], the DC50 lay within 10 to 100 nM and the “BRM IF Degradation Sinf (%)” value was “E (E indicates −30%-−70%)”.

For the compound `Nc1nnc(-c2ccccc2O)cc1N1CC2CCC(C1)N2c1ccnc(C#CCN2CCC(F)(F)C2)c1` [Compound 43, 2-[6-amino-5-[8-[2-[3-(3,3-difluoropyrrolidin-1-yl)prop-1-ynyl]-4-pyridyl]-3,8-diazabicyclo[3.2.1]octan-3-yl]pyridazin-3-yl]phenol], in assay [1], the DC50 was less than 10 nM and the Dmax lay in the range of 0 to 30%. Moreover, in assay [2], the DC50 was 10 to 100 nM and the “BRM IF Degradation Sinf (%)” value is on record as “E (E indicates −30%-−70%)”.

With `Nc1nnc(-c2ccccc2O)cc1N1CC2CCC(C1)N2c1ccnc(C#CCN2CCC3(CCCO3)C2)c1` (stereo not shown) [Compound 44, 2-[6-amino-5-[8-[2-[3-(1-oxa-7-azaspiro[4.4]nonan-7-yl)prop-1-ynyl]-4-pyridyl]-3,8-diazabicyclo[3.2.1]octan-3-yl]pyridazin-3-yl]phenol], in assay [1], the DC50 is 10 to 100 nM and the Dmax lay in the range of 30 to 70%. Besides, in assay [2], the DC50 was less than 10 nM and the “BRM IF Degradation Sinf (%)” value is listed as “E (E indicates −30%-−70%)”.

As for `Nc1nnc(-c2ccccc2O)cc1N1CC2CCC(C1)N2c1ccnc(C#CCN2CCC(CO)CC2)c1` [Compound 45, 2-(6-amino-5-(8-(2-(3-(4-(hydroxymethyl)piperidin-1-yl)prop-1-yn-1-yl)pyridin-4-yl)-3,8-diazabicyclo[3.2.1]octan-3-yl)pyridazin-3-yl)phenol], in assay [1], the DC50 was 10 to 100 nM and the Dmax lay in the range of 30 to 70%. Moreover, in assay [2], the DC50 is 10 to 100 nM and the “BRM IF Degradation Sinf (%)” value is given as “E (E indicates −30%-−70%)”.

On to `Nc1nnc(-c2ccccc2O)cc1N1CC2CCC(C1)N2c1ccnc(C#CCCN2CCCCC2)c1` [Compound 182, 2-[6-amino-5-[8-[2-[4-(1-piperidyl)but-1-ynyl]-4-pyridyl]-3,8-diazabicyclo[3.2.1]octan-3-yl]pyridazin-3-yl]phenol], for which, in assay [2], the DC50 was greater than 100 nM and the “BRM IF Degradation Sinf (%)” value was “F (F indicates −71%-−120%)”.

In the case of `CC1CCN(CC#Cc2cc(N3C4CCC3CN(c3cc(-c5ccccc5O)nnc3N)C4)ccn2)CCC1=O` (stereo not shown) [Compound 198, 1-[3-[4-[3-[3-amino-6-(2-hydroxyphenyl)pyridazin-4-yl]-3,8-diazabicyclo[3.2.1]octan-8-yl]-2-pyridyl]prop-2-ynyl]-5-methyl-azepan-4-one], in assay [2], the DC50 is less than 10 nM and the “BRM IF Degradation Sinf (%)” value was “E (E indicates −30%-−70%)”.

`Nc1nnc(-c2ccccc2O)cc1N1CC2CCC(C1)N2c1ccnc(C#CCN2CCCN(c3ccncc3)CC2)c1` [Compound 204, 2-[6-amino-5-[8-[2-[3-[4-(4-pyridyl)-1,4-diazepan-1-yl]prop-1-ynyl]-4-pyridyl]-3,8-diazabicyclo[3.2.1]octan-3-yl]pyridazin-3-yl]phenol]: in assay [2], the DC50 is 10 to 100 nM and the “BRM IF Degradation Sinf (%)” value is on record as “E (E indicates −30%-−70%)”.

With `CC1(C)CC(O)CCN(CC#Cc2cc(N3C4CCC3CN(c3cc(-c5ccccc5O)nnc3N)C4)ccn2)C1` (stereo not shown) [Compound 213, 1-[3-[4-[3-[3-amino-6-(2-hydroxyphenyl)pyridazin-4-yl]-3,8-diazabicyclo[3.2.1]octan-8-yl]-dimethyl-azepan-4-ol 2-pyridyl]prop-2-ynyl]-6,6-], in assay [2], the DC50 was in the range of 10 to 100 nM and the “BRM IF Degradation Sinf (%)” value was “E (E indicates −30%-−70%)”.

Regarding `Nc1nnc(-c2ccccc2O)cc1N1CC2CCC(C1)N2c1ccnc(C#CCN2CC3C4CCC(C4)C32)c1` (stereo not shown) [Compound 220, 2-[6-amino-5-[8-[2-[3-(3-azatricyclo[4.2.1.02,5]nonan-3-yl)prop-1-ynyl]-4-pyridyl]-3,8-diazabicyclo[3.2.1]octan-3-yl]pyridazin-3-yl]phenol], in assay [2], the DC50 is greater than 100 nM and the “BRM IF Degradation Sinf (%)” value is “E (E indicates −30%-−70%)”.

For the compound `Nc1nnc(-c2ccccc2O)cc1N1CC2CCC(C1)N2c1ccnc(/C=C/CN2CCCCCC2)c1` [Compound 248, (E)-2-(6-amino-5-(8-(2-(3-(azepan-1-yl)prop-1-en-1-yl)pyridin-4-yl)-3,8-diazabicyclo[3.2.1]octan-3-yl)pyridazin-3-yl)phenol], in assay [2], the DC50 is less than 10 nM and the “BRM IF Degradation Sinf (%)” value is on record as “E (E indicates −30%-−70%)”.
